Data on 16 molecules can be found in ChEMBL document CHEMBL4725253, “Discovery of quinoline-based irreversible BTK inhibitors” (Bioorg Med Chem Lett, 2020).

Structures are written as SMILES.

Data set [1] is described as follows: Inhibition of anti-human alphaIgM-stimulated MIP1beta production in human Ramos B cells preincubated for 1 hr followed by anti-human IgM stimulation for 6 hrs by ELISA. It counts as functional, cell-based.
Data set [2] concerns the target Epidermal growth factor receptor (Homo sapiens, UniProt P00533). The data set is described as follows: Inhibition of EGFR (unknown origin) expressed in baculovirus system using fluorescein labeled PDGFR-tide substrate peptide preincubated for 60 mins followed by ATP addition and measured after 60 mins by IMAP assay.
The target in data set [3] is T1, Tyrosine-protein kinase BTK (Homo sapiens, UniProt Q06187). Nature of the data set: Inhibition of human recombinant full length N-terminal His6-tagged BTK expressed in baculovirus infected Sf9 cells using fluorescein labeled Blk/Lyntide substrate preincubated with enzyme for 60 mins followed by further incubation with substrate and ATP for 120 mins by IMAP assay.
T1 sequence (Q06187 whole entry): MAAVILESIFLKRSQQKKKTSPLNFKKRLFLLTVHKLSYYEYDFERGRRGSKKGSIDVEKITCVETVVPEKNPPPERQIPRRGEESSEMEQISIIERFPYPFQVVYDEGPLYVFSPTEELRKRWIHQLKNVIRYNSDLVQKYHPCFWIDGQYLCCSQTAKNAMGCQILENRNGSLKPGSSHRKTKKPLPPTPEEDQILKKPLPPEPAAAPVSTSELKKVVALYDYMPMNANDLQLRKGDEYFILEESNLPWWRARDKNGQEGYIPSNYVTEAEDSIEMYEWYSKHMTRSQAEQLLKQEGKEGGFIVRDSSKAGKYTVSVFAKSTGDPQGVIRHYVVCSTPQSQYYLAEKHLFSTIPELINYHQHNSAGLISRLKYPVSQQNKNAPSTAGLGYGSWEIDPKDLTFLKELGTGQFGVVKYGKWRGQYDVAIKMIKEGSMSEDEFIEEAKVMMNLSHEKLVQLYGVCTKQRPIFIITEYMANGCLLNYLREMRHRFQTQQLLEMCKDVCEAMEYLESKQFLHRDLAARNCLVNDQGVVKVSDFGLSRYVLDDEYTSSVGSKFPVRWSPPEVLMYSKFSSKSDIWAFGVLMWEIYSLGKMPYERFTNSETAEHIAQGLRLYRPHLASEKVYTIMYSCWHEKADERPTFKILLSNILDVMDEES

A short description of data set [4]: Inhibition of goat anti-human IgM F(ab')-stimulated CD69 cell surface expression in human PBMC preincubated for 2 hrs followed by anti-human IgM stimulation for 18 hrs by flow cytometric analysis. In kind it is functional, tissue-based.
In the next data set the test system is Blood. The data set is described as follows: Inhibition of mouse anti-human anti-IgD-stimulated CD69 cell surface expression in human whole blood preincubated for 2 hrs followed by anti-human anti-IgD stimulation for 18 hrs by flow cytometric analysis. It counts as functional, tissue-based. (In general: Flow cytometry measures light scatter and fluorescence of single cells or particles in a stream.)

The species named for a further data set is Homo sapiens. The data set is described as follows: Selectivity index, ratio of IC50 for EGFR (unknown origin) expressed in baculovirus system to IC50 for human recombinant full length N-terminal His6-tagged BTK expressed in baculovirus infected Sf9 cells.
A short description of data set [5]: In vivo inhibition of CD69 expression in po dosed mouse. It counts as functional.
Data set [6] has as its target Tyrosine-protein kinase Blk (Homo sapiens, UniProt P51451). The data set is described as follows: Inhibition of recombinant full length human His-tagged BLK cytoplasmic domain expressed in baculovirus expression system using tyrosine-1 peptide as substrate preincubated for 1 hr in presence of ATP by Z'-LYTE assay.
Data set [7] is described as follows: Solubility of compound by turbidimetric assay. It counts as physicochemical.
For data set [8], the target named is T1, Tyrosine-protein kinase BTK. Nature of the data set: Covalent inhibition of His-tagged human full length recombinant BTK expressed in baculovirus expression system incubated for 5 to 120 mins by Lanthascreen TR-FRET assay. The note with it: time min 5-120, TDE = time-dependent effect. (In general: Time-resolved FRET reads energy transfer from a long-lived donor to a nearby acceptor.)

Sequence of Epidermal growth factor receptor (P00533 whole entry): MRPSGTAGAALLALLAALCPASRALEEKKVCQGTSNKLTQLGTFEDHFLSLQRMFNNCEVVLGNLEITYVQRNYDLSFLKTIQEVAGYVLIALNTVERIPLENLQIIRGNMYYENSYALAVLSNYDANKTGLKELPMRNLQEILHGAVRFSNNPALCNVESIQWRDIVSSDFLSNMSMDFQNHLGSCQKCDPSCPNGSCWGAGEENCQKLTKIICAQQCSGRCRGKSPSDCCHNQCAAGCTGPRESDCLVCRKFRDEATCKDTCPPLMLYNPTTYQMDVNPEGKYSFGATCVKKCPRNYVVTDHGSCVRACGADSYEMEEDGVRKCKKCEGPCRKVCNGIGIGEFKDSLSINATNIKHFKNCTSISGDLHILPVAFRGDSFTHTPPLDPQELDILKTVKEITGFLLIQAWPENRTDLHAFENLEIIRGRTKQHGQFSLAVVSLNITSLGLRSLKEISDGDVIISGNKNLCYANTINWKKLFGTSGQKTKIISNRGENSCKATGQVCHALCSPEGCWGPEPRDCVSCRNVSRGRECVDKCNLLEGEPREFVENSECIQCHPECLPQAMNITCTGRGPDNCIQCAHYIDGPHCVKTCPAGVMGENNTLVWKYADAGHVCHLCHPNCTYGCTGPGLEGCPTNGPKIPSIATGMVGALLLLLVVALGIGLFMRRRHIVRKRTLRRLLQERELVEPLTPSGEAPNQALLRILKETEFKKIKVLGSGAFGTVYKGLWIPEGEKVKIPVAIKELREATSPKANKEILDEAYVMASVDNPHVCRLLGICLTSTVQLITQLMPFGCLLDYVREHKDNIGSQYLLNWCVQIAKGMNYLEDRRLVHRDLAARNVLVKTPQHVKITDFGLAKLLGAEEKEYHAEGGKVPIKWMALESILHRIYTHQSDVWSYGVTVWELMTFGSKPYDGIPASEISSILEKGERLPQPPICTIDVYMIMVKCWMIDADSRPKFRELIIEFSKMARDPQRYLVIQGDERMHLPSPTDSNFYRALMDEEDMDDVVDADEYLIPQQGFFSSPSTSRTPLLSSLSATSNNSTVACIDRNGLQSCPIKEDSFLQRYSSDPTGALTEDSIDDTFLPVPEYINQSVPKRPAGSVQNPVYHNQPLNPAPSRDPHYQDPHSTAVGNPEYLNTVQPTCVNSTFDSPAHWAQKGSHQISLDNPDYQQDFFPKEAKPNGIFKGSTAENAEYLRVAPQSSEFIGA
Sequence of Tyrosine-protein kinase Blk (P51451 whole entry, the tested form may be a part): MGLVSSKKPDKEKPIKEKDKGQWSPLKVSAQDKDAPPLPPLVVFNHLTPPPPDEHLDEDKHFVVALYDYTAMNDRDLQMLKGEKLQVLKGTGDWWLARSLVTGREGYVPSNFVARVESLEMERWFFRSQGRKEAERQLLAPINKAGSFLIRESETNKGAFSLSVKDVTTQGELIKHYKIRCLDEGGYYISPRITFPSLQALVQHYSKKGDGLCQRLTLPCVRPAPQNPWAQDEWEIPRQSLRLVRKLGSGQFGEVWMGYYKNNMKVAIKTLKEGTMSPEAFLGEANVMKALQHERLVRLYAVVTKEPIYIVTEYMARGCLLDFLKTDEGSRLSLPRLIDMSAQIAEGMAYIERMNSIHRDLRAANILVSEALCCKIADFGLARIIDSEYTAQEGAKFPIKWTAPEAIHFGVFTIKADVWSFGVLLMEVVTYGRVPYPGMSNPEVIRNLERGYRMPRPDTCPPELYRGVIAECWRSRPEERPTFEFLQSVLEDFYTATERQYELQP

One may read the EC50 as the concentration at which the effect is half-maximal. As usually defined, the IC50 is the concentration that inhibits the measured activity by half. As for `CC#CC(=O)Nc1ccc2nccc(Oc3ccc(C(=O)Nc4ccccn4)cc3)c2c1`, the EC50 in [1] turned out to be 152 nM. Also, the figures for the IC50 in data set [2] and in data set [3] were more than 1000 nM and 4.7 nM, respectively.
Consider `O=C(C#CCN1CCOCC1)Nc1ccc2nccc(Oc3ccc(C(=O)Nc4ccccn4)cc3)c2c1`, for which the EC50 in data set [1] came to 12 nM. For the same molecule, the IC50 in data set [2] was determined as 13 nM; in data set [3], 0.26 nM.
Take `CC#CC(=O)Nc1cc2c(Oc3ccc(C(=O)Nc4ccccn4)cc3)ccnc2cc1OC`: the EC50 in [1] amounted to 29 nM; in data set [4], 9.7 nM; with Blood, 66 nM. In addition, the IC50 was more than 1000 nM in data set [2] and 1.5 nM in data set [3].
For `CCN1CCN(CC#CC(=O)Nc2ccc3nccc(Oc4ccc(C(=O)Nc5ccccn5)cc4)c3c2)CC1`, the concentration giving a half-maximal response (EC50) in [1] came out at 18 nM. The IC50 in data set [2] amounted to 55 nM; in data set [3], 2.5 nM. For the same molecule, the Ratio IC50 in the data set listed under Homo sapiens came to 22.
In the case of `CC#CC(=O)Nc1cc2c(Oc3ccc(C(=O)Nc4ccccn4)cc3)ccnc2cc1OCCCN1CCN(C)CC1`, the concentration giving a half-maximal response (EC50) is 3.9 nM in data set [1], 2.1 nM in [4] and 35 nM in the data set on Blood. Also, the results for the concentration for half-maximal inhibition (IC50) in data set [2] and in [3] were 233 nM and 1 nM, respectively.
Turning to `CC#CC(=O)Nc1cc2c(Oc3ccc(C(=O)Nc4ccccn4)cc3)ccnc2cc1OC1CCOCC1`, the midpoint of the response in [1], the EC50, lay at 152 nM. Besides, the values for the IC50 in [2] and in [3] were more than 1000 nM and 3.8 nM, respectively.
Regarding `COc1cc2nccc(Oc3ccc(C(=O)Nc4ccccn4)cc3)c2cc1NC(=O)C#CCN1CCOCC1`, the values for the EC50 (in data set [1]; in data set [4]; with Blood) were 2.1 nM, 1.5 nM and 12 nM, respectively. In addition, the IC50 in data set [2] is 24 nM; in data set [3], 0.47 nM.
Regarding `O=C(C#CCCN1CCOCC1)Nc1ccc2nccc(Oc3ccc(C(=O)Nc4ccccn4)cc3)c2c1`, in data set [1], the EC50 was 25 nM. The values for the 50% inhibitory concentration (IC50) in data set [2] and in data set [3] were 81 nM and 0.8 nM, respectively.
The matching figures for `COCC#CC(=O)Nc1ccc2nccc(Oc3ccc(C(=O)Nc4ccccn4)cc3)c2c1`: 7 nM, 16 nM and 0.15 nM.
For `COCC#CC(=O)Nc1cc2c(Oc3ccc(C(=O)Nc4ccccn4)cc3)ccnc2cc1OC`, in that order: 12 nM, 12 nM and 0.96 nM.
For `C=CC(=O)Nc1ccc2ncnc(Nc3ccc(C(=O)Nc4ccccn4)cc3)c2c1`, half-maximal inhibition in data set [2] (IC50) was put at 3.8 nM. Further, the EC50 in [3] stood at 18 nM.
For orientation: ED50 means the midpoint of the dose-response relation. As to `CC#CC(=O)N1CCC[C@H]1c1nc(-c2ccc(C(=O)Nc3ccccn3)cc2)c2c(N)nccn12` [ACALABRUTINIB], the ED50 in data set [5] was 1.3 mg/kg. Further, the IC50 in [6] is more than 1000 nM.
For the molecule `C=CC(=O)Nc1ccc2nccc(Oc3ccc(C(=O)Nc4ccccn4)cc3)c2c1`, it took 112 nM to reach a half-maximal effect in data set [1] (EC50). Also, the IC50 in data set [2] was 159 nM; in [3], 3.5 nM.
For `CN(C)C/C=C/C(=O)Nc1ccc2nccc(Oc3ccc(C(=O)Nc4ccccn4)cc3)c2c1`, in that order: 89 nM, 275 nM and 7.2 nM.
As a reminder, the kinetic solubility is solubility judged after dilution from a stock solution rather than from solid. `O=C(C#CCO)Nc1ccc2nccc(Oc3ccc(C(=O)Nc4ccccn4)cc3)c2c1` gave a concentration giving a half-maximal response (EC50) in data set [1] of 28 nM. Also, the figures for the half-inhibitory concentration (IC50) in data set [2] and in [3] were 6.3 nM and 0.33 nM, respectively. The kinetic solubility in [7] is less than 1 µM. For the same molecule, the Ratio IC50 in the data set listed under Homo sapiens was 19.
In turn, `C=CC(=O)Nc1ccc2ncnc(Oc3ccc(C(=O)Nc4ccccn4)cc3)c2c1` returned an IC50 in [2] of 11 nM. Moreover, in data set [3], the EC50 was determined as 7.2 nM. For the same molecule, in [8], the inhibition result was “Tde”.
